In US20260034094A1, “COMPOSITIONS AND METHODS FOR INDUCING FERROPTOSIS” (Kojin Therapeutics, Inc., priority 2022, published 2026):
pEC50, pIC50: −log10 of the molar value. Several values for one entry are separate records, joined by “and”; a condition that tells them apart may be missing. Equal entries are not always repeated. Where two headings read alike, the source gives them in different places.

Legend:
human recombinant GCL = human recombinant GCL (Homo sapiens (Human), UniProt P48506); experiment: GCL enzyme profiling assay (ADP-Glo luminescence); format: biochemical; conditions: human recombinant GCL 5 nM, 1 h preincubation with ATP; for pIC50: read-out: GCL IC50
Sequence of human recombinant GCL (P48506 whole entry): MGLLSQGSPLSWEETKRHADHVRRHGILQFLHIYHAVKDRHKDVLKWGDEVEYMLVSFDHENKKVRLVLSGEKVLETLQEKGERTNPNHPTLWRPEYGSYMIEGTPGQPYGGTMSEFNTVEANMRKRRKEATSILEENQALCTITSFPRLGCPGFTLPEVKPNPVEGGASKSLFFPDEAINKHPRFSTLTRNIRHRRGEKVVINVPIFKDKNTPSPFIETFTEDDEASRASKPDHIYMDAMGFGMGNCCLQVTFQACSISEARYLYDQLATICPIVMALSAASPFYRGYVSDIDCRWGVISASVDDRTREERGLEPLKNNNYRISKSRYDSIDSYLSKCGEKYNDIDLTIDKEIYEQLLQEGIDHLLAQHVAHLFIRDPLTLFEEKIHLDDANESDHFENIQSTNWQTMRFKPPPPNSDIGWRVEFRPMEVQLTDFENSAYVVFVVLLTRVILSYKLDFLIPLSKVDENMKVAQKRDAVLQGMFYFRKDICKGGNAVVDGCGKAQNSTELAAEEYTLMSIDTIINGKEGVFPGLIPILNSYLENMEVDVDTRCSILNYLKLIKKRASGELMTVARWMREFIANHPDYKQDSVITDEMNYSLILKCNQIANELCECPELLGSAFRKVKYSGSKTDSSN
Experimental: The GCL enzyme assay was run in 50 mM HEPES, pH 7.5, containing 150 mM NaCl, 30 mM MgCl2, 0.5 mM EDTA, 1 mM DTT, 0.1 mg/mL BSA, and 0.02% or in the present case 0.2% F-127 in a total assay volume of 10 μL or 10 mL. Compound in pure DMSO was stamped in assay plates (Greiner black 384-well) or appropriate containers using a D300e digital dispenser (TECAN) and the final DMSO concentration was normalized to 1%. A 5 mL, or in the present case, 5 μL mixture of human recombinant GCL (final concentration: 5 nM) and ATP (final concentration: 0.6 mM) was added and the solution was incubated at room temperature (22° C.) for 1 h. The GCL enzyme reaction was initiated by addition of a 5 μL mixture of mono g-glutamate or in the present example, monosodium glutamate (final concentration: 1 mM) and a-aminobutyrate or α-aminobutyrate (final concentration: 1.2 mM). The reaction was stopped after 1 h or in the present case, 2 h by addition of 5 mL, or in the present case, 5 μL ADP GLO Reagent (Promega). The resulting solution was incubated for 2 h at room temperature. This was then followed by addition of 5 mL, or in the present case, 5 μL ADP GLO Detection. After incubation at room temperature for 30 min, the plates were read on a plate reader (PheraStar) using a luminescence protocol to quantify the GCL enzyme activity from each reaction solution. The data was analyzed using a four-parameter logistic equation to calculate IC50.

RKN cells = experiment: RKN cell profiling assay (cell viability, CellTiter-Glo); format: cell-based; conditions: 96 h exposure; for pEC50: read-out: Cell Killing EC50; for EC50: read-out: Cell Killing EC50 (mM), individual values in parentheses
Experimental: RKN cells were suspended in assay medium (F-12 medium supplemented with 10% FBS and penicillin/streptomycin) and seeded at 1,000 cells per well (30 μL total volume) in opaque white 384-well plates (Corning). Cells were allowed to adhere for 24 h at 37° C. (95% humidity, 5% CO2) and then exposed to compounds disclosed herein for 72 h, or in the present case, 96 h. DMSO stock solutions of compounds were added to cells using a D300e Digital Dispenser (Tecan). The final DMSO concentration in each well was normalized to 0.5% (v/v) after compound treatment. Cell viability was measured using CellTiter-Glo (Promega). After incubation for 15 min at room temperature, luminescence was measured using a PHERAstar FSX microplate reader (BMG Labtech). Ferroptosis rescue experiments were performed as described previously using cells treated with ferrostatin-1 (fer-1, 1.5 μM) when seeding assay plates. Dose-response data were analyzed to determine EC50 values with GraphPad Prism 9 software using a four-parameter logistic equation or CDD Vault (Collaborative Drug Discovery) using the Levenberg-Marquardt algorithm.

Compound	pIC50 (human recombinant GCL)	IC50 (human recombinant GCL; read-out: GCL IC50 (mM), individual values in parentheses)	pEC50 (RKN cells; 96 h)	EC50 (RKN cells; 96 h)	EC50 (RKN cells)
N=S(=O)(CCc1ccncc1)CC[C@H](N)C(=O)O (some centres unmarked) [Compound 6]	< 2.70 and 2.70 to 4.70	2.27 mM and > 1.62 mM	≤ 3.00		
N=S(=O)(CCc1nccs1)CC[C@H](N)C(=O)O (some centres unmarked) [Compound 10]	< 2.70		≤ 3.00		
COc1ccc(CCS(=N)(=O)CC[C@H](N)C(=O)O)cc1 (some centres unmarked) [Compound 12]	2.70 to 4.70		≤ 3.00		
N=S(=O)(CCc1nc(-c2ccccc2)cs1)CC[C@H](N)C(=O)O (some centres unmarked) [Compound 17]	2.70 to 4.70		≤ 3.00		
N=S(=O)(CCc1cccc2c1OC(F)(F)O2)CC[C@H](N)C(=O)O (some centres unmarked) [Compound 18]	2.70 to 4.70		≤ 3.00		
COc1ccccc1CCS(=N)(=O)CC[C@H](N)C(=O)O (some centres unmarked) [Compound 20]	2.70 to 4.70		≤ 3.00		
N=S(=O)(CCc1ccccc1F)CC[C@H](N)C(=O)O (some centres unmarked) [Compound 23]	2.70 to 4.70		≤ 3.00		
N=S(=O)(CCc1cccc(Cl)c1Cl)CC[C@H](N)C(=O)O (some centres unmarked) [Compound 25]	2.70 to 4.70		≤ 3.00		
Cc1cccc(CCS(=N)(=O)CC[C@H](N)C(=O)O)c1C (some centres unmarked) [Compound 27]	2.70 to 4.70		≤ 3.00		
Cc1cccc(C)c1CCS(=N)(=O)CC[C@H](N)C(=O)O (some centres unmarked) [Compound 32]	2.70 to 4.70		≤ 3.00		
N=S(=O)(CCc1ccccc1C1CC1)CC[C@H](N)C(=O)O (some centres unmarked) [Compound 34]	2.70 to 4.70		≤ 3.00		
Cc1noc(C)c1CCS(=N)(=O)CC[C@H](N)C(=O)O (some centres unmarked) [Compound 35]	2.70 to 4.70		≤ 3.00		
CC(CS(=N)(=O)CC[C@H](N)C(=O)O)c1ccccc1Cl (some centres unmarked) [Compound 38]	2.70 to 4.70		≤ 3.00		
Cc1ccc(C(=O)O)cc1CCS(=N)(=O)CC[C@H](N)C(=O)O (some centres unmarked) [Compound 41]	2.70 to 4.70		≤ 3.00		
Cc1cccc(Cl)c1CCS(=N)(=O)CC[C@H](N)C(=O)O (some centres unmarked) [Compound 42]	2.70 to 4.70		≤ 3.00		
N=S(=O)(CC[C@H](N)C(=O)O)C[C@H](O)c1ccccc1 (some centres unmarked) [Compound 46]	2.70 to 4.70		≤ 3.00		
CCC(CS(=N)(=O)CC[C@H](N)C(=O)O)c1ccccc1C(F)(F)F (some centres unmarked) [Compound 47]	< 2.70		≤ 3.00		
CC(C)(CCS(=N)(=O)CC[C@H](N)C(=O)O)c1ccccc1 (stereo partly drawn) [Compound 49, (2S)-2-amino-4-(3-methyl-3-phenylbutylsulfonimidoyl)butanoic acid]	2.70 to 4.70		≤ 3.00		
N=S(=O)(CCCc1ccccc1)CC[C@H](N)C(=O)O (some centres unmarked) [Compound 51]	2.70 to 4.70		≤ 3.00		
N=S(=O)(CCCCc1ccccc1)CC[C@H](N)C(=O)O (some centres unmarked) [Compound 52]	2.70 to 4.70		≤ 3.00		
N=S(=O)(CCC(c1ccccc1)C(F)(F)F)CC[C@H](N)C(=O)O (some centres unmarked) [Compound 53]	2.70 to 4.70		> 3.00		
N=S(=O)(CC[C@H](N)C(=O)O)CC[C@H](O)c1ccccc1 (some centres unmarked) [Compound 54]	2.70 to 4.70		≤ 3.00		
N=S(=O)(CCC(c1ccccc1)c1ccccc1)CC[C@H](N)C(=O)O (some centres unmarked) [Compound 55]	2.70 to 4.70		≤ 3.00		
Cc1ccc(C(C)(C)CCS(=N)(=O)CC[C@H](N)C(=O)O)cc1 (some centres unmarked) [Compound 56]	2.70 to 4.70		≤ 3.00		
Cc1cccc(C(C)(C)CCS(=N)(=O)CC[C@H](N)C(=O)O)c1 (some centres unmarked) [Compound 57]	2.70 to 4.70		≤ 3.00		
CC(C)(CCS(=N)(=O)CC[C@H](N)C(=O)O)c1ccc(F)cc1 (some centres unmarked) [Compound 58]	2.70 to 4.70		≤ 3.00		
CC(C)(CCS(=N)(=O)CC[C@H](N)C(=O)O)c1cnoc1 (some centres unmarked) [Compound 63]	2.70 to 4.70		≤ 3.00		

The next lines start with results.

pIC50 (human recombinant GCL)	IC50 (human recombinant GCL; read-out: GCL IC50 (mM), individual values in parentheses)	Compound	pEC50 (RKN cells; 96 h)	EC50 (RKN cells; 96 h)	EC50 (RKN cells)
≥ 4.70		N=S(=O)(CCc1ccc(Cl)cc1)CC[C@H](N)C(=O)O (stereo partly drawn) [Compound 1, (2S)-2-amino-4-(2-(4-chlorophenyl)ethylsulfonimidoyl)butanoic acid]	≤ 3.00		
2.70 to 4.70		N=S(=O)(CCc1ccccc1)CC[C@H](N)C(=O)O (stereo partly drawn) [Compound 2, (2S)-2-amino-4-(2-phenylethylsulfonimidoyl)butanoic acid]	≤ 3.00		
2.70 to 4.70		N=S(=O)(CCc1cccc(C(F)(F)F)c1)CC[C@H](N)C(=O)O (some centres unmarked) [Compound 3]	≤ 3.00		
2.70 to 4.70		N=S(=O)(CCc1cccc(OC(F)(F)F)c1)CC[C@H](N)C(=O)O (some centres unmarked) [Compound 4]	≤ 3.00		
≥ 4.70		N=S(=O)(CCc1ccc(F)c(F)c1)CC[C@H](N)C(=O)O (some centres unmarked) [Compound 5]	≤ 3.00		
2.70 to 4.70		N=S(=O)(CCc1cn[nH]c1)CC[C@H](N)C(=O)O (some centres unmarked) [Compound 8]	≤ 3.00		
2.70 to 4.70		N=S(=O)(CCc1cnoc1)CC[C@H](N)C(=O)O (some centres unmarked) [Compound 9]	> 3.00		
≥ 4.70		Cc1ccc(CCS(=N)(=O)CC[C@H](N)C(=O)O)cc1 (some centres unmarked) [Compound 11]	≤ 3.00		
≥ 4.70		N=S(=O)(CCc1ccc(Cl)c(Cl)c1)CC[C@H](N)C(=O)O (some centres unmarked) [Compound 13]	≤ 3.00		
≥ 4.70		N=S(=O)(CCc1ccccc1C(F)(F)F)CC[C@H](N)C(=O)O (some centres unmarked) [Compound 15]	≤ 3.00	1.2 mM	0.97 mM
≥ 4.70		N=S(=O)(CCc1cccc(F)c1F)CC[C@H](N)C(=O)O (some centres unmarked) [Compound 16]	> 3.00		
≥ 4.70		N=S(=O)(CCc1ccccc1Cl)CC[C@H](N)C(=O)O (some centres unmarked) [Compound 19]	> 3.00		
≥ 4.70		N=S(=O)(CCc1ccccc1O)CC[C@H](N)C(=O)O (some centres unmarked) [Compound 21]	> 3.00		
≥ 4.70		N=S(=O)(CCc1cccc(F)c1)CC[C@H](N)C(=O)O (some centres unmarked) [Compound 24]	≤ 3.00		
≥ 4.70		Cc1c(F)cccc1CCS(=N)(=O)CC[C@H](N)C(=O)O (some centres unmarked) [Compound 26]	> 3.00		
≥ 4.70		N#Cc1ccccc1CCS(=N)(=O)CC[C@H](N)C(=O)O (some centres unmarked) [Compound 30]	≤ 3.00		

pIC50 (human recombinant GCL)	IC50 (human recombinant GCL; read-out: GCL IC50 (mM), individual values in parentheses)	Compound	pEC50 (RKN cells; 96 h)	EC50 (RKN cells; 96 h)	EC50 (RKN cells)
≥ 4.70		N=S(=O)(CCc1cccc2ccccc12)CC[C@H](N)C(=O)O (some centres unmarked) [Compound 31]	≤ 3.00		
≥ 4.70		CCc1ccccc1CCS(=N)(=O)CC[C@H](N)C(=O)O (some centres unmarked) [Compound 33]	≤ 3.00		
≥ 4.70		N=S(=O)(CCc1ccc(C(F)(F)F)cc1C(F)(F)F)CC[C@H](N)C(=O)O (some centres unmarked) [Compound 36]	> 3.00		
≥ 4.70		Cc1ccc(CCS(=N)(=O)CC[C@H](N)C(=O)O)c(F)c1 (some centres unmarked) [Compound 37]	≤ 3.00		
≥ 4.70		Cc1ccc(Cl)c(CCS(=N)(=O)CC[C@H](N)C(=O)O)c1 (some centres unmarked) [Compound 39]	≤ 3.00		
≥ 4.70		Cc1ccc(CCS(=N)(=O)CC[C@H](N)C(=O)O)c(Cl)c1 (some centres unmarked) [Compound 43]	≤ 3.00		
≥ 4.70		Cc1ccc(C(F)(F)F)c(CCS(=N)(=O)CC[C@H](N)C(=O)O)c1 (some centres unmarked) [Compound 44]	≤ 3.00		
≥ 4.70		Cc1ccc(-c2nn[nH]n2)cc1CCS(=N)(=O)CC[C@H](N)C(=O)O (some centres unmarked) [Compound 45]	≤ 3.00		
≥ 4.70		N=S(=O)(CCc1cccs1)CC[C@H](N)C(=O)O (some centres unmarked) [Compound 48]	≤ 3.00		
≥ 4.70		CC(C)(CCS(=N)(=O)CC[C@H](N)C(=O)O)c1ccccc1F (some centres unmarked) [Compound 59]	> 3.00		
≥ 4.70		N=[S@](=O)(CC[C@H](c1ccccc1)C(F)(F)F)CC[C@H](N)C(=O)O [Compound 60]	> 3.00		
≥ 4.70		N=[S@@](=O)(CC[C@H](N)C(=O)O)CC[C@@H](c1ccccc1)C(F)(F)F [Compound 61]	> 3.00		
≥ 4.70		N=S(=O)(CC[C@H](N)C(=O)O)CCC1(c2ccccc2)CCC1 (some centres unmarked) [Compound 62]	> 3.00		
≥ 4.70		N=S(=O)(CCC(c1c[nH]c2ccccc12)C(F)(F)F)CC[C@H](N)C(=O)O (some centres unmarked) [Compound 64]	> 3.00		
≥ 4.70		CC(C)(CCS(=N)(=O)CC[C@H](N)C(=O)O)Cc1ccccc1 (some centres unmarked) [Compound 65]	≤ 3.00		
